Reference: patent US10059701B2 (Merck Patent GmbH, priority 2015, dated 2018)
Where a name gives a salt, the structure may show the parent alone.

What was measured:
[1] = biological target: T1, IRAK1 (Homo sapiens, UniProt P51617); test: IRAK1 enzymatic assay (ADP-Glo luminescence); type: biochemical; details: purified human recombinant His-TEV-IRAK1 (194-712)
T1 construct: His-TEV-IRAK1 (194-712); His (N); TEV cleavage site (N)
In short: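 Recombinant human His-TEV-IRAK1 (194-712), 0.3 μg/ml, preincubated 15 min at RT with compounds (10 μM to 0.5 nM) in 50 mM Hepes pH 7.0, 10 mM MgCl2, 2 mM DTT, 0.1% BSA. ATP-started reaction run 2 hours at RT; ADP formed from ATP hydrolysis/autophosphorylation read by ADP-Glo luminescence.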

[2] = biological target: T2, IRAK4 (Homo sapiens, UniProt Q9NWZ3); test: IRAK4 enzymatic assay (ADP-Glo luminescence); type: biochemical; details: purified human recombinant His-TEV-IRAK4 (1-460), ATP 2 μM
T2 construct: His-TEV-IRAK4 (1-460); His (N); TEV cleavage site (N)
T2 sequence (Q9NWZ3 1-460): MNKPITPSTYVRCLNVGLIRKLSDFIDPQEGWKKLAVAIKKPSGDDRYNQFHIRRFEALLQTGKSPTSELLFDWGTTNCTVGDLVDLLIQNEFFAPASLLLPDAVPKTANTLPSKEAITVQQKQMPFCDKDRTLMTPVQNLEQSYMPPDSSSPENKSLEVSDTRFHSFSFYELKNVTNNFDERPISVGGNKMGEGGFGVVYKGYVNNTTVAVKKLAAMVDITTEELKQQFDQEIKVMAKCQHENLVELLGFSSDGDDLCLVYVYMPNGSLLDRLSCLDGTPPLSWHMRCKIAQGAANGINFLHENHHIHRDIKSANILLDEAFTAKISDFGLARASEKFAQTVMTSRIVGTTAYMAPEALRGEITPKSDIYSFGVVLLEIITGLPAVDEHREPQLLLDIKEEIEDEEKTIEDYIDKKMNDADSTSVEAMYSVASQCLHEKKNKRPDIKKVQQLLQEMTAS
In short: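 Recombinant His-TEV-IRAK4 (1-460) at 0.3 μg/ml preincubated 15 min at RT with compounds (10 μM to 0.5 nM) in Hepes pH 7.0 buffer with MgCl2/MnCl2. Reaction started with 2 μM ATP and 300 nM STK1-biotin peptide, run 2 h at RT. ADP formed read by ADP-Glo luminescence.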

T1 sequence (P51617 194-712): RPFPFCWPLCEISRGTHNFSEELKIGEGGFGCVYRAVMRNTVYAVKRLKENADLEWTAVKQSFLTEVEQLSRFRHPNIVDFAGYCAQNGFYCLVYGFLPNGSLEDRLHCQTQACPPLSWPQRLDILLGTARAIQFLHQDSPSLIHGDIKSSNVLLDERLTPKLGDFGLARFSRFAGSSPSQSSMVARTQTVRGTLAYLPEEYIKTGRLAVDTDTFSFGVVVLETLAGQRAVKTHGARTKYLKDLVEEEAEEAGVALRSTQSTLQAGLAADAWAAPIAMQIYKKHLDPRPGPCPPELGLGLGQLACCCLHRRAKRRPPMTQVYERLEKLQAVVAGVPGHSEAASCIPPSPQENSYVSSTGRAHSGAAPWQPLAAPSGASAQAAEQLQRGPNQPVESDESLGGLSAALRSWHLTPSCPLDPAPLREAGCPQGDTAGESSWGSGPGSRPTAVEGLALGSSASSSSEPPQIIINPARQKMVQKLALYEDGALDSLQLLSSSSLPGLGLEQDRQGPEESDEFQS

O=C(/N=c1\[nH]c2cc(N3CCCOC3=O)ccc2n1C1CCC1)c1cccc(C(F)(F)F)c1 [Compound 170, (E)-N-(1-cyclobutyl-5-(2-oxo-1,3-oxazinan-3-yl)-1H-benzo[d]imidazol-2(3H)-ylidene)-3-(trifluoromethyl)benzamide]
IC50 [1]: > 1000 nM
IC50 [2]: ≤ 100 nM

O=C(/N=c1\[nH]c2cc(N3CCCOC3=O)ccc2n1C1CCCC1)c1cccc(C(F)(F)F)c1 [Compound 171, (E)-N-(1-cyclopentyl-5-(2-oxo-1,3-oxazinan-3-yl)-1H-benzo[d]imidazol-2(3H)-ylidene)-3-(trifluoromethyl)benzamide]
IC50 [1]: > 1000 nM
IC50 [2]: ≤ 100 nM

O=C(/N=c1\[nH]c2cc(N3CCCOC3=O)ccc2n1C1CC1)c1cccc(C(F)(F)F)c1 [Compound 172, (E)-N-(1-cyclopropyl-5-(2-oxo-1,3-oxazinan-3-yl)-1H-benzo[d]imidazol-2(3H)-ylidene)-3-(trifluoromethyl)benzamide]
IC50 [1]: > 1000 nM
IC50 [2]: ≤ 100 nM

CC(C)(C)Cn1/c(=N/C(=O)c2cccc(C(F)(F)F)c2)[nH]c2cc(N3CCCOC3=O)ccc21 [Compound 173, (E)-N-(1-neopentyl-5-(2-oxo-1,3-oxazinan-3-yl)-1H-benzo[d]imidazol-2(3H)-ylidene)-3-(trifluoromethyl)benzamide]
IC50 [1]: 100 to 1000 nM
IC50 [2]: ≤ 100 nM

O=C(/N=c1\[nH]c2cc(N3CCCOC3=O)ccc2n1CC1(C(=O)O)CC1)c1cccc(C(F)(F)F)c1 [Compound 174, (E)-1-((5-(2-oxo-1,3-oxazinan-3-yl)-2-((3-(trifluoromethyl)benzoyl)imino)-2,3-dihydro-1H-benzo[d]imidazol-1-yl)methyl)cyclopropanecarboxylic acid]
IC50 [1]: 100 to 1000 nM
IC50 [2]: ≤ 100 nM

C#CCn1/c(=N/C(=O)c2cccc(C(F)(F)F)c2)[nH]c2cc(N3CCCOC3=O)ccc21 [Compound 175, (E)-N-(5-(2-oxo-1,3-oxazinan-3-yl)-1-(prop-2-yn-1-yl)-1H-benzo[d]imidazol-2(3H)-ylidene)-3-(trifluoromethyl)benzamide]
IC50 [1]: 100 to 1000 nM
IC50 [2]: ≤ 100 nM

O=C(/N=c1\[nH]c2cc(N3CCCOC3=O)ccc2n1CCC(F)(F)F)c1cccc(C(F)(F)F)c1 [Compound 176, (E)-N-(5-(2-oxo-1,3-oxazinan-3-yl)-1-(3,3,3-trifluoropropyl)-1H-benzo[d]imidazol-2(3H)-ylidene)-3-(trifluoromethyl)benzamide]
IC50 [1]: 100 to 1000 nM
IC50 [2]: ≤ 100 nM

O=C(/N=c1\[nH]c2cc(N3CCCOC3=O)ccc2n1CC(F)(F)C(F)(F)F)c1cccc(C(F)(F)F)c1 [Compound 177, (E)-N-(5-(2-oxo-1,3-oxazinan-3-yl)-1-(2,2,3,3,3-pentafluoropropyl)-1H-benzo[d]imidazol-2(3H)-ylidene)-3-(trifluoromethyl)benzamide]
IC50 [1]: > 1000 nM
IC50 [2]: ≤ 100 nM

CC(C)(F)Cn1/c(=N/C(=O)c2cccc(C(F)(F)F)c2)[nH]c2cc(N3CCCOC3=O)ccc21 [Compound 178, (E)-N-(1-(2-fluoro-2-methylpropyl)-5-(2-oxo-1,3-oxazinan-3-yl)-1H-benzo[d]imidazol-2(3H)-ylidene)-3-(trifluoromethyl)benzamide]
IC50 [1]: 100 to 1000 nM
IC50 [2]: ≤ 100 nM

CC(F)(F)Cn1/c(=N/C(=O)c2cccc(C(F)(F)F)c2)[nH]c2cc(N3CCCOC3=O)ccc21 [Compound 179, (E)-N-(1-(2,2-difluoropropyl)-5-(2-oxo-1,3-oxazinan-3-yl)-1H-benzo[d]imidazol-2(3H)-ylidene)-3-(trifluoromethyl)benzamide]
IC50 [1]: 100 to 1000 nM
IC50 [2]: ≤ 100 nM

O=C(/N=c1\[nH]c2cc(N3CCCOC3=O)ccc2n1CC1CCCOC1)c1cccc(C(F)(F)F)c1 (stereo not drawn) [Compound 180, (E)-N-(5-(2-oxo-1,3-oxazinan-3-yl)-1-((tetrahydro-2H-pyran-3-yl)methyl)-1H-benzo[d]imidazol-2(3H)-ylidene)-3-(trifluoromethyl)benzamide]
IC50 [1]: 100 to 1000 nM
IC50 [2]: ≤ 100 nM

O=C(/N=c1\[nH]c2cc(N3CCCOC3=O)ccc2n1CC1CCCCC1)c1cccc(C(F)(F)F)c1 [Compound 181, (E)-N-(1-(cyclohexylmethyl)-5-(2-oxo-1,3-oxazinan-3-yl)-1H-benzo[d]imidazol-2(3H)-ylidene)-3-(trifluoromethyl)benzamide]
IC50 [1]: > 1000 nM
IC50 [2]: ≤ 100 nM

O=C(/N=c1\[nH]c2cc(N3CCN(C4CC4)CC3=O)ccc2n1CCCO)c1cccc(C(F)F)c1 [Compound 182, (E)-N-(5-(4-cyclopropyl-2-oxopiperazin-1-yl)-1-(3-hydroxypropyl)-1H-benzo[d]imidazol-2(3H)-ylidene)-3-(difluoromethyl)benzamide]
IC50 [1]: ≤ 100 nM
IC50 [2]: ≤ 100 nM

O=C(/N=c1\[nH]c2cc(N3CCN(C4CC4)CC3=O)ccc2n1CCCO)c1cccc(C(F)(F)F)c1 [Compound 183, (E)-N-(5-(4-cyclopropyl-2-oxopiperazin-1-yl)-1-(3-hydroxypropyl)-1H-benzo[d]imidazol-2(3H)-ylidene)-3-(trifluoromethyl)benzamide]
IC50 [1]: ≤ 100 nM
IC50 [2]: ≤ 100 nM

O=C(/N=c1\[nH]c2cc(N3CCN(C4CCC4)CC3=O)ccc2n1CCCO)c1cccc(C(F)F)c1 [Compound 184, (E)-N-(5-(4-cyclobutyl-2-oxopiperazin-1-yl)-1-(3-hydroxypropyl)-1H-benzo[d]imidazol-2(3H)-ylidene)-3-(difluoromethyl)benzamide]
IC50 [1]: ≤ 100 nM
IC50 [2]: ≤ 100 nM

CC(C)N1CCN(c2ccc3c(c2)[nH]/c(=N\C(=O)c2cccc(C(F)F)c2)n3CCCO)C(=O)C1 [Compound 185, (E)-3-(difluoromethyl)-N-(1-(3-hydroxypropyl)-5-(4-isopropyl-2-oxopiperazin-1-yl)-1H-benzo[d]imidazol-2(3H)-ylidene)benzamide]
IC50 [1]: ≤ 100 nM
IC50 [2]: ≤ 100 nM

O=C(/N=c1\[nH]c2cc(N3CCSCC3=O)ccc2n1CCCO)c1cccc(C(F)(F)F)c1 [Compound 186, (E)-N-(1-(3-hydroxypropyl)-5-(3-oxothiomorpholino)-1H-benzo[d]imidazol-2(3H)-ylidene)-3-(trifluoromethyl)benzamide]
IC50 [1]: 100 to 1000 nM
IC50 [2]: ≤ 100 nM

O=C(/N=c1\[nH]c2cc(N3CCSCC3=O)ccc2n1CCCO)c1cccc(C(F)F)c1 [Compound 187, (E)-3-(difluoromethyl)-N-(1-(3-hydroxypropyl)-5-(3-oxothiomorpholino)-1H-benzo[d]imidazol-2(3H)-ylidene)benzamide]
IC50 [1]: ≤ 100 nM
IC50 [2]: ≤ 100 nM

Cn1cnn(-c2ccc3c(c2)[nH]/c(=N\C(=O)c2cccc(C(F)(F)F)c2)n3CCCO)c1=O [Compound 188, (E)-N-(1-(3-hydroxypropyl)-5-(4-methyl-5-oxo-4,5-dihydro-1H-1,2,4-triazol-1-yl)-1H-benzo[d]imidazol-2(3H)-ylidene)-3-(trifluoromethyl)benzamide]
IC50 [1]: 100 to 1000 nM
IC50 [2]: ≤ 100 nM

Cn1ncn(-c2ccc3c(c2)[nH]/c(=N\C(=O)c2cccc(C(F)(F)F)c2)n3CCCO)c1=O [Compound 189, (E)-N-(1-(3-hydroxypropyl)-5-(1-methyl-5-oxo-4,5-dihydro-1H-1,2,4-triazol-4(5H)-yl)-1H-benzo[d]imidazol-2(3H)-ylidene)-3-(trifluoromethyl)benzamide]
IC50 [1]: ≤ 100 nM
IC50 [2]: ≤ 100 nM

O=C(/N=c1\[nH]c2cc(N3CCCCS3(=O)=O)ccc2n1CCCO)c1cccc(C(F)(F)F)c1 [Compound 190, (E)-N-(5-(1,1-dioxido-1,2-thiazinan-2-yl)-1-(3-hydroxypropyl)-1H-benzo[d]imidazol-2(3H)-ylidene)-3-(trifluoromethyl)benzamide]
IC50 [1]: 100 to 1000 nM
IC50 [2]: ≤ 100 nM

CC1(C)NCCN(c2ccc3c(c2)[nH]/c(=N\C(=O)c2cccc(C(F)(F)F)c2)n3CCCO)C1=O [Compound 191, (E)-N-(5-(3,3-dimethyl-2-oxopiperazin-1-yl)-1-(3-hydroxypropyl)-1H-benzo[d]imidazol-2(3H)-ylidene)-3-(trifluoromethyl)benzamide hydrochloride]
IC50 [1]: 100 to 1000 nM
IC50 [2]: ≤ 100 nM

O=C(/N=c1\[nH]c2cc(N3CCOCCC3=O)ccc2n1CCCO)c1cccc(C(F)(F)F)c1 [Compound 192, (E)-N-(1-(3-hydroxypropyl)-5-(5-oxo-1,4-oxazepan-4-yl)-1H-benzo[d]imidazol-2(3H)-ylidene)-3-(trifluoromethyl)benzamide]
IC50 [1]: 100 to 1000 nM
IC50 [2]: ≤ 100 nM

O=C(/N=c1\[nH]c2cc(N3CCCOCC3=O)ccc2n1CCCO)c1cccc(C(F)(F)F)c1 [Compound 193, (E)-N-(1-(3-hydroxypropyl)-5-(3-oxo-1,4-oxazepan-4-yl)-1H-benzo[d]imidazol-2(3H)-ylidene)-3-(trifluoromethyl)benzamide]
IC50 [1]: ≤ 100 nM
IC50 [2]: ≤ 100 nM
